Source: the NIST ThermoML archive (doi:10.1021/je030177j)

Assay: mn = molality of the nth substance listed, in mol/kg
Conditions: Liquid, Capillary tube (Ostwald / Ubbelohde) method

O=S(=O)([O-])[O-].[Li+].[Li+] [lithium sulfate] + O
viscosity [mPa·s]
Conditions	10000 kPa	20000 kPa	30000 kPa
415.76 K, m1 = 0.885	–	–	0.2944
417.42 K, m1 = 0.28	0.2175	0.2199	0.2227
418.18 K, m1 = 0.56	0.2443	0.2469	0.2497
420.67 K, m1 = 0.1	0.198	0.201	0.2031
423.55 K, m1 = 0.28	0.208	0.2106	0.2133
424.05 K, m1 = 0.885	0.2687	0.2721	0.2756
424.55 K, m1 = 0.56	0.233	0.2359	0.239
430.26 K, m1 = 0.885	0.2564	0.2601	0.264
430.73 K, m1 = 0.28	0.1975	0.1999	0.2024
431.72 K, m1 = 0.1	0.1829	0.1849	0.1871
431.83 K, m1 = 0.56	0.2212	0.2231	0.2251
437.24 K, m1 = 0.56	0.213	0.2154	0.2185
439.37 K, m1 = 0.885	0.2402	0.244	0.2479
440.04 K, m1 = 0.28	0.1858	0.1885	0.191
446.35 K, m1 = 0.56	0.2	0.203	0.206
449.15 K, m1 = 0.885	0.2248	0.2283	0.2318
449.35 K, m1 = 0.28	0.175	0.1776	0.1803
449.55 K, m1 = 0.1	0.163	0.1654	0.168
452.17 K, m1 = 0.56	0.1927	0.1957	0.1984
458.12 K, m1 = 0.885	0.2109	0.2139	0.2179
458.17 K, m1 = 0.28	0.1658	0.1682	0.1704
459.12 K, m1 = 0.56	0.1843	0.1878	0.19
459.89 K, m1 = 0.1	0.1532	0.1553	0.1577
462.13 K, m1 = 0.28	0.162	0.1649	0.1674
466.79 K, m1 = 0.885	0.2003	0.2038	0.2071
468.13 K, m1 = 0.56	0.175	0.1787	0.1813
468.74 K, m1 = 0.28	0.1558	0.1582	0.1612
468.97 K, m1 = 0.1	0.1454	0.1477	0.15
473.25 K, m1 = 0.1	0.1421	0.1467	0.149
475.55 K, m1 = 0.28	0.15	0.1528	0.1555
476.95 K, m1 = 0.885	0.1885	0.192	0.1956
479.55 K, m1 = 0.56	0.1637	0.1668	0.1699
482.35 K, m1 = 0.1	0.1352	0.1378	0.1404
485.13 K, m1 = 0.885	0.1797	0.1835	0.1871
485.17 K, m1 = 0.28	0.1424	0.1452	0.1475
490.35 K, m1 = 0.1	0.1297	0.1322	0.1354
490.76 K, m1 = 0.56	0.1538	0.1567	0.1595
492.49 K, m1 = 0.885	0.1725	0.1761	0.179
495.14 K, m1 = 0.28	0.1352	0.1377	0.14
500.43 K, m1 = 0.885	0.1653	0.1688	0.1722
501.3 K, m1 = 0.1	0.1228	0.125	0.1275
509.17 K, m1 = 0.885	0.158	0.1614	0.1649
510.12 K, m1 = 0.56	0.1391	0.142	0.1455
510.93 K, m1 = 0.1	0.1172	0.1199	0.1235
515.27 K, m1 = 0.28	0.1224	0.1247	0.1271
517.75 K, m1 = 0.885	0.1513	0.155	0.1586
521.75 K, m1 = 0.1	0.1115	0.1143	0.117
522.75 K, m1 = 0.56	0.1308	0.1341	0.1373
525.95 K, m1 = 0.28	0.1166	0.1196	0.1225
526.12 K, m1 = 0.885	0.1453	0.1491	0.1527
530.53 K, m1 = 0.1	0.1072	0.1097	0.1122
532.85 K, m1 = 0.56	0.125	0.1281	0.131
538.24 K, m1 = 0.885	0.1372	0.1408	0.1443
540.08 K, m1 = 0.28	0.1096	0.1125	0.1156
541.04 K, m1 = 0.1	0.1024	0.1052	0.1087
547.35 K, m1 = 0.1	0.0998	0.1027	0.1055
550.72 K, m1 = 0.885	0.1297	0.1335	0.1372
551.24 K, m1 = 0.56	0.1151	0.1184	0.1214
560.12 K, m1 = 0.28	0.1011	0.104	0.1075
560.18 K, m1 = 0.885	0.1246	0.1282	0.1318
560.43 K, m1 = 0.1	0.0948	0.0977	0.0999
560.72 K, m1 = 0.56	0.1106	0.1132	0.115
569.15 K, m1 = 0.1	0.0917	0.0945	0.0977
572.05 K, m1 = 0.56	0.1056	0.1092	0.1126
573.45 K, m1 = 0.28	0.0962	0.0995	0.1025
574.55 K, m1 = 0.885	0.1176	0.1217	0.1255
574.75 K, m1 = 0.1	0.0897	0.0928	0.0957
